Assay results: ChEMBL document CHEMBL3627608, “Crystal structures of human RIP2 kinase catalytic domain complexed with ATP-competitive inhibitors: Foundations for understanding inhibitor selectivity” (Bioorg Med Chem, 2015)

What was measured:
[1] = target: Fibroblast growth factor receptor 3 (Homo sapiens) (UniProt P22607); test: Inhibition of FGFR3 (unknown origin) at 10 uM after 120 mins P33 radiolabeled kinase activity assay
[2] = target: T1, Serine/threonine-protein kinase Nek9 (Homo sapiens) (UniProt Q8TD19); test: Inhibition of NEK9 (unknown origin) at 10 uM after 120 mins P33 radiolabeled kinase activity assay
T1 sequence (whole entry): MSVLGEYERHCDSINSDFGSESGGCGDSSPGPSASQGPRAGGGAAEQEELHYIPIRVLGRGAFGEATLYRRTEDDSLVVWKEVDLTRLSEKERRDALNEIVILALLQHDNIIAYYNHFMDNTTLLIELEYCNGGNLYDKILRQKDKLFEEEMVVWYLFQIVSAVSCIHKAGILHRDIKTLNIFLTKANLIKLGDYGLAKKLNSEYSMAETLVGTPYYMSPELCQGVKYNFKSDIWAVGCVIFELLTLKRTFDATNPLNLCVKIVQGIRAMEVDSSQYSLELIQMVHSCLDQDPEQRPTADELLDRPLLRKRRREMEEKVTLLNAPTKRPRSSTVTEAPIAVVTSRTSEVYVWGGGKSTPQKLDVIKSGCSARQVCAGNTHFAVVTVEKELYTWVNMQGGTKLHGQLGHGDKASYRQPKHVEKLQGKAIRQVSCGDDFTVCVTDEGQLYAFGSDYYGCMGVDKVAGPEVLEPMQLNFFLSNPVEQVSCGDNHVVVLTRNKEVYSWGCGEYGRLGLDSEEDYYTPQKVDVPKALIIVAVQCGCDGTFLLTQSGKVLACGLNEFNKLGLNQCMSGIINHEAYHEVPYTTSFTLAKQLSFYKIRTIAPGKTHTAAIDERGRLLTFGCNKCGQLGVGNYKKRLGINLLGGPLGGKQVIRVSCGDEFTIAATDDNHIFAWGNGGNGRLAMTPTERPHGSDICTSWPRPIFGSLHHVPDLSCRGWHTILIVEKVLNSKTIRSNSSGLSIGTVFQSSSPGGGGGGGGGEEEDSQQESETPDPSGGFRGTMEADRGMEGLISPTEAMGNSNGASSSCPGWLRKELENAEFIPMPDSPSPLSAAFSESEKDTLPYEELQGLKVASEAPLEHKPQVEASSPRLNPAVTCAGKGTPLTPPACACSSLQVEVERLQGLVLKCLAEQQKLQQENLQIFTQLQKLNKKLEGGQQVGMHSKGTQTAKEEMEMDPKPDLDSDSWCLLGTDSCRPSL

[3] = target: Protein kinase C gamma type (Homo sapiens) (UniProt P05129); test: Inhibition of PKCgamma (unknown origin) at 10 uM after 120 mins P33 radiolabeled kinase activity assay
[4] = target: Mitogen-activated protein kinase kinase kinase kinase 5 (Homo sapiens) (UniProt Q9Y4K4); test: Inhibition of KHS (unknown origin) at 10 uM after 120 mins P33 radiolabeled kinase activity assay
[5] = target: Tyrosine-protein kinase Lyn (Homo sapiens) (UniProt P07948); test: Inhibition of LYN B (unknown origin) at 10 uM after 120 mins P33 radiolabeled kinase activity assay
[6] = target: MAP kinase-interacting serine/threonine-protein kinase 2 (Homo sapiens) (UniProt Q9HBH9); test: Inhibition of MNK2 (unknown origin) at 10 uM after 120 mins P33 radiolabeled kinase activity assay
[7] = target: T2, Tyrosine-protein kinase receptor TYRO3 (Homo sapiens) (UniProt Q06418); test: Inhibition of TYRO3 (unknown origin) at 10 uM after 120 mins P33 radiolabeled kinase activity assay
T2 sequence (whole entry): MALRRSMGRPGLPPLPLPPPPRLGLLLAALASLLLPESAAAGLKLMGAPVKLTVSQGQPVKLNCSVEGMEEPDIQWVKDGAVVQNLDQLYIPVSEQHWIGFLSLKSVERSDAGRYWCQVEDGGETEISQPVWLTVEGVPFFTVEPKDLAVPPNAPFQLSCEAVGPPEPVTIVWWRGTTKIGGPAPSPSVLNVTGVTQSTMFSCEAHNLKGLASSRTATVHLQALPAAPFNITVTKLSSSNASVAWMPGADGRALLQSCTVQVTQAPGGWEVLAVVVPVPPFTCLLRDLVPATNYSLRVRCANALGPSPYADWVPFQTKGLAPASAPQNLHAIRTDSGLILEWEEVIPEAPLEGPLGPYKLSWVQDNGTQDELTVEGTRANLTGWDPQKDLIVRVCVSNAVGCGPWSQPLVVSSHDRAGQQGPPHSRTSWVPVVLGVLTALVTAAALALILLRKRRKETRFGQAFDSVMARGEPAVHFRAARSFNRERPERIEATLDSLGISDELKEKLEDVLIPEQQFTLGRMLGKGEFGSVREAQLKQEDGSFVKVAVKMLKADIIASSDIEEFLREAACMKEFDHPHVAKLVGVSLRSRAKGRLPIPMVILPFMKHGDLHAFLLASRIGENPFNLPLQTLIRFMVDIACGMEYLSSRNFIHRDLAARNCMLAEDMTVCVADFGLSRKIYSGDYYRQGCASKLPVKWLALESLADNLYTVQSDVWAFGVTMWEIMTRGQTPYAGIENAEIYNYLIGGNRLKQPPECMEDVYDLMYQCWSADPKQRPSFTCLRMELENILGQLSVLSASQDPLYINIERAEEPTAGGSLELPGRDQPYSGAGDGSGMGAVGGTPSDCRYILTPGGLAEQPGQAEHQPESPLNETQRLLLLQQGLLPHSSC

[8] = target: CDK6/cyclin D3 (Homo sapiens) (UniProt P30281+Q00534); test: Inhibition of CDK6/cyclin D3 (unknown origin) at 10 uM after 120 mins P33 radiolabeled kinase activity assay; assay type: protein-complex assay
[9] = target: CDK9/Cyclin K (Homo sapiens) (UniProt P50750+O75909); test: Inhibition of CDK9/cyclin K (unknown origin) at 10 uM after 120 mins P33 radiolabeled kinase activity assay; assay type: protein-complex assay

MAP kinase-interacting serine/threonine-protein kinase 2 (Homo sapiens), sequence (Q9HBH9 whole entry, looked up): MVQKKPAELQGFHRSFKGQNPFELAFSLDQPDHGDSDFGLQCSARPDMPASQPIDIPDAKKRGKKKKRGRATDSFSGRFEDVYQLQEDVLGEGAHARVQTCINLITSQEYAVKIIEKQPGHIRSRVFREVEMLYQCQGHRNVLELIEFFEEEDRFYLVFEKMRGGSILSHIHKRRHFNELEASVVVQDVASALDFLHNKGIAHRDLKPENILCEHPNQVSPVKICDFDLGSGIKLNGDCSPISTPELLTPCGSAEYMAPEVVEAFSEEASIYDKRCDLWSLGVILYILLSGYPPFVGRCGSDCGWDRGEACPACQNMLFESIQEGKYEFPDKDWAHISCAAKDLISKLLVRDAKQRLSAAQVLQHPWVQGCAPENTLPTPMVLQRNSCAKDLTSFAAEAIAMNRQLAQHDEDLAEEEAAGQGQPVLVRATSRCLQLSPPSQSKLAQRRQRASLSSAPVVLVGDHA
Fibroblast growth factor receptor 3 (Homo sapiens), sequence (P22607 23-806 limits assumed): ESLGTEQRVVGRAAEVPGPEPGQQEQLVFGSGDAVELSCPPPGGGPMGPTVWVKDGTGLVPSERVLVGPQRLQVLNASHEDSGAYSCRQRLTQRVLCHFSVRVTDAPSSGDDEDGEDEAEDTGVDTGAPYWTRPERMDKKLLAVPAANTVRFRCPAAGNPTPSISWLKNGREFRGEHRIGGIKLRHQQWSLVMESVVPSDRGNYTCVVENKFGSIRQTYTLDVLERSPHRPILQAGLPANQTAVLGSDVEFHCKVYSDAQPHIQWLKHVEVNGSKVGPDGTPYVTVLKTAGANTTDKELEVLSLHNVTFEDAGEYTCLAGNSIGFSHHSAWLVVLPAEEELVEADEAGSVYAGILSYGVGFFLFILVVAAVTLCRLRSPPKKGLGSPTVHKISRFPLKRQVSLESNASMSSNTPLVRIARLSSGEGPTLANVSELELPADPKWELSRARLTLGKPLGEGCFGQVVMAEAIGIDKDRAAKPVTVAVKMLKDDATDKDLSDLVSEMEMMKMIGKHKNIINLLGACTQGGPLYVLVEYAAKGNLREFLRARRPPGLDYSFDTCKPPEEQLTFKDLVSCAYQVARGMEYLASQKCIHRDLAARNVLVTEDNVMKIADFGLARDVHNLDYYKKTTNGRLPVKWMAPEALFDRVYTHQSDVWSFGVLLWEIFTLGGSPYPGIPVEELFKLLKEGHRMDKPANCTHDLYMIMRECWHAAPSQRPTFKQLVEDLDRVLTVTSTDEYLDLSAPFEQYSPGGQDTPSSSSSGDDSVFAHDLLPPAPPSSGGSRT
Mitogen-activated protein kinase kinase kinase kinase 5 (Homo sapiens), sequence (Q9Y4K4 whole entry, looked up): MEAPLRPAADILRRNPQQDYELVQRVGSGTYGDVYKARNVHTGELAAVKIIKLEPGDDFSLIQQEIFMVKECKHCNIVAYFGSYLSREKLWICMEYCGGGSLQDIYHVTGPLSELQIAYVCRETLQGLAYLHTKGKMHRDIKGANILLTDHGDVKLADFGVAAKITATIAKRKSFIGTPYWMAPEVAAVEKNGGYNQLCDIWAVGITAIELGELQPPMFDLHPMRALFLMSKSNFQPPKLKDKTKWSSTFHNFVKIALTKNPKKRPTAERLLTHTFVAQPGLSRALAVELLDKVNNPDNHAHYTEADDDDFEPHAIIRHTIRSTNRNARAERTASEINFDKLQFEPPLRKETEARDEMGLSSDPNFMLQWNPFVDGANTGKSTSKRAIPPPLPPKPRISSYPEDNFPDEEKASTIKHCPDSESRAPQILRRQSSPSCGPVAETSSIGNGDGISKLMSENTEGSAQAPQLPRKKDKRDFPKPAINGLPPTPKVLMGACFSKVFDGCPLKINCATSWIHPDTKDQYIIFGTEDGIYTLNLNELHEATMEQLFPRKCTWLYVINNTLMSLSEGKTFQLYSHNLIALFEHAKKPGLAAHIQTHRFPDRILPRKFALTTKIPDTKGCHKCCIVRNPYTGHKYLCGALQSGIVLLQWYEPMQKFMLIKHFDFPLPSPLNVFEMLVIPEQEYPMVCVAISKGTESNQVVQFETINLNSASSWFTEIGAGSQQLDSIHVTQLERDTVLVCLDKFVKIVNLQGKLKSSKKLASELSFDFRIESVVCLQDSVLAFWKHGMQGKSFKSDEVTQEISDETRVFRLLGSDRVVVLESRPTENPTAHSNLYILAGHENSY
Tyrosine-protein kinase Lyn (Homo sapiens), sequence (P07948 2-512 limits assumed): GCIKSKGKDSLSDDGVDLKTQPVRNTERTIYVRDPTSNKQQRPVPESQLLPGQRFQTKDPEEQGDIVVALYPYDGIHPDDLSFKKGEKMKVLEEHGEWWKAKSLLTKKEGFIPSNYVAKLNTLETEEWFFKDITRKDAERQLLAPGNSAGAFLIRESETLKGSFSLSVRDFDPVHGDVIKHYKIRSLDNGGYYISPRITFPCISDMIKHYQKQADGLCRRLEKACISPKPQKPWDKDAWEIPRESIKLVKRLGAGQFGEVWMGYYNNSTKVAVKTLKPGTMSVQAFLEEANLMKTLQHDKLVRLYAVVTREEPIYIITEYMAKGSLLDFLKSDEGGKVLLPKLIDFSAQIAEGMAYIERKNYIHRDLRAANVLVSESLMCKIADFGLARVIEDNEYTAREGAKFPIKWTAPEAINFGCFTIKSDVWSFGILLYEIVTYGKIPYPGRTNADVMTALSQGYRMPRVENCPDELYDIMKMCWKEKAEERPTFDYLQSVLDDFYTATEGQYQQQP

Row | inhibition [1] | inhibition [3] | inhibition [4] | inhibition [5] | inhibition [6] | inhibition [7] | inhibition [8] | inhibition [9] | Structure (SMILES) | inhibition [2]
1 | 8.78% | 4.86% | 33.6% | 41.5% | 2.19% | 12.8% | 5.8% | 3.39% | COCCNC(=O)c1ccc2c(c1)nc(-c1cnc(-c3ccc(Cl)cc3)[nH]1)n2CCOC | -6.23%
2 | 51.2% | 10.9% | 93.5% | 100% | 81.5% | 79.5% | 83.8% | 6.34% | CS(=O)(=O)c1cccc(Nc2nccc(-c3sc(N4CCOCC4)nc3-c3cccc(NS(=O)(=O)c4c(F)cccc4F)c3)n2)c1 | 100%
3 | 72.3% | 2.25% | 90% | 94.8% | 99.2% | 60.7% | 43.8% | 37% | CC(C)(C)c1cc(NC(=O)Nc2ccc(Oc3ccncc3)cc2)no1 | 20.9%
